Each block holds one molecule with its values, some of them ahead of it.
Assay: Effect of temperature (and pH) on the stability of the solution (purity)
Format: physicochemical
Details: 7% solution in water

Purity(%) at day 0 (pH 1.0, day 0): 98.1 ± 0.3%
Purity(%) at day 21 (5° C.) (pH 1.0, day 21, 5° C.): 92.9 ± 0.3%
Purity(%) at day 21 (25° C.) (pH 1.0, day 21, 25° C.): 69.2 ± 0.3%
Purity(%) at day 21 (40° C.) (pH 1.0, day 21, 40° C.): 11.3 ± 0.3%
Purity (%) at day 21 (60° C.) (pH 1.0, day 21, 60° C.): 0%
Purity(%) at day 0 (pH 2.0, day 0): 98.2 ± 0.3%
Purity(%) at day 21 (5° C.) (pH 2.0, day 21, 5° C.): 96.1 ± 0.3%
Purity(%) at day 21 (25° C.) (pH 2.0, day 21, 25° C.): 83.0 ± 0.3%
Purity(%) at day 21 (40° C.) (pH 2.0, day 21, 40° C.): 20.5 ± 0.3%
Purity (%) at day 21 (60° C.) (pH 2.0, day 21, 60° C.): 0%
Purity(%) at day 0 (pH 3.0, day 0): 98.3 ± 0.2%
Purity(%) at day 21 (5° C.) (pH 3.0, day 21, 5° C.): 97.5 ± 0.2%
Purity(%) at day 21 (25° C.) (pH 3.0, day 21, 25° C.): 94.0 ± 0.3%
Purity(%) at day 21 (40° C.) (pH 3.0, day 21, 40° C.): 45.3 ± 0.2%
Purity (%) at day 21 (60° C.) (pH 3.0, day 21, 60° C.): 0%
Purity(%) at day 0 (pH 3.7, day 0): 98.5 ± 0.1%
Purity(%) at day 21 (5° C.) (pH 3.7, day 21, 5° C.): 97.6 ± 0.2%
Purity(%) at day 21 (25° C.) (pH 3.7, day 21, 25° C.): 96.6 ± 0.2%
Purity(%) at day 21 (40° C.) (pH 3.7, day 21, 40° C.): 51.9 ± 0.2%
Purity (%) at day 21 (60° C.) (pH 3.7, day 21, 60° C.): 11.3 ± 0.3%
Purity(%) at day 0 (pH 4.0, day 0): 98.6 ± 0.1%
Purity(%) at day 21 (5° C.) (pH 4.0, day 21, 5° C.): 98.0 ± 0.1%
Purity(%) at day 21 (25° C.) (pH 4.0, day 21, 25° C.): 96.7 ± 0.2%
Purity(%) at day 21 (40° C.) (pH 4.0, day 21, 40° C.): 62.7 ± 0.2%
Purity (%) at day 21 (60° C.) (pH 4.0, day 21, 60° C.): 18.6 ± 0.2%
Purity(%) at day 0 (pH 4.3, day 0): 98.6 ± 0.1%
Purity(%) at day 21 (5° C.) (pH 4.3, day 21, 5° C.): 98.0 ± 0.1%
Purity(%) at day 21 (25° C.) (pH 4.3, day 21, 25° C.): 96.7 ± 0.1%
Purity(%) at day 21 (40° C.) (pH 4.3, day 21, 40° C.): 63.1 ± 0.2%
Purity (%) at day 21 (60° C.) (pH 4.3, day 21, 60° C.): 17.7 ± 0.2%
Purity(%) at day 0 (pH 4.6, day 0): 98.6 ± 0.1%
Purity(%) at day 21 (5° C.) (pH 4.6, day 21, 5° C.): 98.0 ± 0.1%
Purity(%) at day 21 (25° C.) (pH 4.6, day 21, 25° C.): 96.6 ± 0.1%
Purity(%) at day 21 (40° C.) (pH 4.6, day 21, 40° C.): 50.3 ± 0.2%
Purity (%) at day 21 (60° C.) (pH 4.6, day 21, 60° C.): 12.3 ± 0.2%
Purity(%) at day 0 (pH 5.0, day 0): 98.4 ± 0.2%
Purity(%) at day 21 (5° C.) (pH 5.0, day 21, 5° C.): 97.1 ± 0.2%
Purity(%) at day 21 (25° C.) (pH 5.0, day 21, 25° C.): 92.9 ± 0.2%
Purity(%) at day 21 (40° C.) (pH 5.0, day 21, 40° C.): 39.8 ± 0.2%
Purity (%) at day 21 (60° C.) (pH 5.0, day 21, 60° C.): 2.9 ± 0.2%
Purity(%) at day 0 (pH 6.0, day 0): 98.2 ± 0.2%
Purity(%) at day 21 (5° C.) (pH 6.0, day 21, 5° C.): 94.8 ± 0.2%
Purity(%) at day 21 (25° C.) (pH 6.0, day 21, 25° C.): 86.8 ± 0.2%
Purity(%) at day 21 (40° C.) (pH 6.0, day 21, 40° C.): 20.6 ± 0.3%
Purity (%) at day 21 (60° C.) (pH 6.0, day 21, 60° C.): 0%
Purity(%) at day 0 (pH 7.0, day 0): 98.0 ± 0.2%
Purity(%) at day 21 (5° C.) (pH 7.0, day 21, 5° C.): 89.1 ± 0.3%
Purity(%) at day 21 (25° C.) (pH 7.0, day 21, 25° C.): 60.9 ± 0.2%
Purity(%) at day 21 (40° C.) (pH 7.0, day 21, 40° C.): 7.4 ± 0.3%
Purity (%) at day 21 (60° C.) (pH 7.0, day 21, 60° C.): 0%
Purity(%) at day 0 (pH 8.0, day 0): 97.7 ± 0.3%
Purity(%) at day 21 (5° C.) (pH 8.0, day 21, 5° C.): 78.7 ± 0.3%
Purity(%) at day 21 (25° C.) (pH 8.0, day 21, 25° C.): 47.9 ± 0.3%
Purity(%) at day 21 (40° C.) (pH 8.0, day 21, 40° C.): 0%
Purity (%) at day 21 (60° C.) (pH 8.0, day 21, 60° C.): 0%
SMILES: CCN(CC)CCOC(=O)C(C)c1ccc2oc(-c3ccc(Cl)cc3)nc2c1.Cl (centres unmarked)

Purity(%) at day 0 (pH 1.0, day 0): 97.5 ± 0.3%
Purity(%) at day 21 (5° C.) (pH 1.0, day 21, 5° C.): 89.9 ± 0.3%
Purity(%) at day 21 (25° C.) (pH 1.0, day 21, 25° C.): 63.5 ± 0.3%
Purity(%) at day 21 (40° C.) (pH 1.0, day 21, 40° C.): 9.1 ± 0.3%
Purity (%) at day 21 (60° C.) (pH 1.0, day 21, 60° C.): 0%
Purity(%) at day 0 (pH 2.0, day 0): 97.7 ± 0.2%
Purity(%) at day 21 (5° C.) (pH 2.0, day 21, 5° C.): 93.0 ± 0.2%
Purity(%) at day 21 (25° C.) (pH 2.0, day 21, 25° C.): 77.8 ± 0.3%
Purity(%) at day 21 (40° C.) (pH 2.0, day 21, 40° C.): 19.6 ± 0.3%
Purity (%) at day 21 (60° C.) (pH 2.0, day 21, 60° C.): 0%
Purity(%) at day 0 (pH 3.0, day 0): 97.8 ± 0.2%
Purity(%) at day 21 (5° C.) (pH 3.0, day 21, 5° C.): 96.8 ± 0.2%
Purity(%) at day 21 (25° C.) (pH 3.0, day 21, 25° C.): 91.3 ± 0.2%
Purity(%) at day 21 (40° C.) (pH 3.0, day 21, 40° C.): 40.4 ± 0.2%
Purity (%) at day 21 (60° C.) (pH 3.0, day 21, 60° C.): 0%
Purity(%) at day 0 (pH 3.7, day 0): 97.9 ± 0.1%
Purity(%) at day 21 (5° C.) (pH 3.7, day 21, 5° C.): 97.5 ± 0.1%
Purity(%) at day 21 (25° C.) (pH 3.7, day 21, 25° C.): 95.6 ± 0.2%
Purity(%) at day 21 (40° C.) (pH 3.7, day 21, 40° C.): 55.6 ± 0.2%
Purity (%) at day 21 (60° C.) (pH 3.7, day 21, 60° C.): 8.5 ± 0.2%
Purity(%) at day 0 (pH 4.0, day 0): 98.1 ± 0.1%
Purity(%) at day 21 (5° C.) (pH 4.0, day 21, 5° C.): 97.6 ± 0.1%
Purity(%) at day 21 (25° C.) (pH 4.0, day 21, 25° C.): 95.7 ± 0.1%
Purity(%) at day 21 (40° C.) (pH 4.0, day 21, 40° C.): 57.2 ± 0.2%
Purity (%) at day 21 (60° C.) (pH 4.0, day 21, 60° C.): 23.2 ± 0.2%
Purity(%) at day 0 (pH 4.3, day 0): 98.1 ± 0.1%
Purity(%) at day 21 (5° C.) (pH 4.3, day 21, 5° C.): 97.7 ± 0.2%
Purity(%) at day 21 (25° C.) (pH 4.3, day 21, 25° C.): 95.5 ± 0.1%
Purity(%) at day 21 (40° C.) (pH 4.3, day 21, 40° C.): 58.8 ± 0.3%
Purity (%) at day 21 (60° C.) (pH 4.3, day 21, 60° C.): 25.8 ± 0.2%
Purity(%) at day 0 (pH 4.6, day 0): 97.9 ± 0.1%
Purity(%) at day 21 (5° C.) (pH 4.6, day 21, 5° C.): 97.6 ± 0.1%
Purity(%) at day 21 (25° C.) (pH 4.6, day 21, 25° C.): 95.1 ± 0.1%
Purity(%) at day 21 (40° C.) (pH 4.6, day 21, 40° C.): 54.7 ± 0.2%
Purity (%) at day 21 (60° C.) (pH 4.6, day 21, 60° C.): 16.5 ± 0.2%
Purity(%) at day 0 (pH 5.0, day 0): 97.8 ± 0.2%
Purity(%) at day 21 (5° C.) (pH 5.0, day 21, 5° C.): 95.9 ± 0.2%
Purity(%) at day 21 (25° C.) (pH 5.0, day 21, 25° C.): 91.8 ± 0.2%
Purity(%) at day 21 (40° C.) (pH 5.0, day 21, 40° C.): 36.1 ± 0.2%
Purity (%) at day 21 (60° C.) (pH 5.0, day 21, 60° C.): 4.2 ± 0.2%
Purity(%) at day 0 (pH 6.0, day 0): 97.6 ± 0.3%
Purity(%) at day 21 (5° C.) (pH 6.0, day 21, 5° C.): 93.7 ± 0.2%
Purity(%) at day 21 (25° C.) (pH 6.0, day 21, 25° C.): 78.9 ± 0.2%
Purity(%) at day 21 (40° C.) (pH 6.0, day 21, 40° C.): 18.5 ± 0.2%
Purity (%) at day 21 (60° C.) (pH 6.0, day 21, 60° C.): 0%
Purity(%) at day 0 (pH 7.0, day 0): 97.5 ± 0.3%
Purity(%) at day 21 (5° C.) (pH 7.0, day 21, 5° C.): 89.3 ± 0.2%
Purity(%) at day 21 (25° C.) (pH 7.0, day 21, 25° C.): 59.7 ± 0.3%
Purity(%) at day 21 (40° C.) (pH 7.0, day 21, 40° C.): 7.1 ± 0.3%
Purity (%) at day 21 (60° C.) (pH 7.0, day 21, 60° C.): 0%
Purity(%) at day 0 (pH 8.0, day 0): 97.4 ± 0.4%
Purity(%) at day 21 (5° C.) (pH 8.0, day 21, 5° C.): 77.5 ± 0.3%
Purity(%) at day 21 (25° C.) (pH 8.0, day 21, 25° C.): 39.8 ± 0.3%
Purity(%) at day 21 (40° C.) (pH 8.0, day 21, 40° C.): 0%
Purity (%) at day 21 (60° C.) (pH 8.0, day 21, 60° C.): 0%
SMILES: CCN(CC)CCOC(=O)COc1nn(Cc2ccccc2)c2ccccc12.Cl

Source: US20230157952A1, “METHOD FOR IMPROVING THE STABILITY OF A PHARMACEUTICAL COMPOSITION COMPRISING A HIGH PENETRATION DRUG, AND THE PHARMACEUTICAL COMPOSITION OBTAINED THEREFROM” (Techfields Inc., priority 2020, published 2023)
